The values that follow come from ChEMBL document CHEMBL5465560, “Selectivity Literature for EUbOPEN Chemogenomic Library” (2024).

Experiment [1] deals with Aurora kinase B (Homo sapiens, UniProt Q96GD4). As to the kind of experiment: Selectivity interaction (KinomeScan (DiscoverX)) EUB0000092b AURKB. Particulars: at 10 µM.
Experiment [2] concerns the target T1, Myosin light chain kinase (Homo sapiens) (UniProt Q32MK0).
T1 sequence (whole entry): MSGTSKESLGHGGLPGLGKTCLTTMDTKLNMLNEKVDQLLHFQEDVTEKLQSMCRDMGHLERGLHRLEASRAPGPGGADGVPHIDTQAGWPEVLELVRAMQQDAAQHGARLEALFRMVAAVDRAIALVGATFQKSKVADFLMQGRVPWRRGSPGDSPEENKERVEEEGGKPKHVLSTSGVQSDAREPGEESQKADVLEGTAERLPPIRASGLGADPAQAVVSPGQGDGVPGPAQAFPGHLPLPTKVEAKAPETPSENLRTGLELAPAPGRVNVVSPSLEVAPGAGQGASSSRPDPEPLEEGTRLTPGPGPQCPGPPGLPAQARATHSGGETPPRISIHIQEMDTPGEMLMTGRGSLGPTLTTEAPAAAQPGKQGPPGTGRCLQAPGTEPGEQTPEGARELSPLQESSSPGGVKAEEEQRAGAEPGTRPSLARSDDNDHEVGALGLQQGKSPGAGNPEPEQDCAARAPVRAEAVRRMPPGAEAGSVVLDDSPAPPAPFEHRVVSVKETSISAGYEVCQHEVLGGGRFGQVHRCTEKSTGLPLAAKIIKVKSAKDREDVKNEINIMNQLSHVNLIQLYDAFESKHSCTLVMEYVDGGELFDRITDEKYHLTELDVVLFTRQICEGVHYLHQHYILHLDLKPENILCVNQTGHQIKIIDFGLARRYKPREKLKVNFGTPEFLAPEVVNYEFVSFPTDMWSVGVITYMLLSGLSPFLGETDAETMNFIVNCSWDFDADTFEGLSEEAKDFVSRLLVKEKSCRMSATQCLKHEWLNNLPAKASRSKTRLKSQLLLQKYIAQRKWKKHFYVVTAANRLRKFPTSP
Nature of the experiment: Selectivity interaction (KinomeScan (DiscoverX)) EUB0001049a MYLK3. Particulars: at 1 µM.

The target in experiment [3] is LIM domain kinase 1 (Homo sapiens) (UniProt P53667). Nature of the experiment: Selectivity interaction (KinomeScan (DiscoverX)) EUB0000655a LIMK1. Particulars: at 10 µM.
LIM domain kinase 1 (Homo sapiens), sequence (P53667 whole entry, looked up, the tested form may be a part): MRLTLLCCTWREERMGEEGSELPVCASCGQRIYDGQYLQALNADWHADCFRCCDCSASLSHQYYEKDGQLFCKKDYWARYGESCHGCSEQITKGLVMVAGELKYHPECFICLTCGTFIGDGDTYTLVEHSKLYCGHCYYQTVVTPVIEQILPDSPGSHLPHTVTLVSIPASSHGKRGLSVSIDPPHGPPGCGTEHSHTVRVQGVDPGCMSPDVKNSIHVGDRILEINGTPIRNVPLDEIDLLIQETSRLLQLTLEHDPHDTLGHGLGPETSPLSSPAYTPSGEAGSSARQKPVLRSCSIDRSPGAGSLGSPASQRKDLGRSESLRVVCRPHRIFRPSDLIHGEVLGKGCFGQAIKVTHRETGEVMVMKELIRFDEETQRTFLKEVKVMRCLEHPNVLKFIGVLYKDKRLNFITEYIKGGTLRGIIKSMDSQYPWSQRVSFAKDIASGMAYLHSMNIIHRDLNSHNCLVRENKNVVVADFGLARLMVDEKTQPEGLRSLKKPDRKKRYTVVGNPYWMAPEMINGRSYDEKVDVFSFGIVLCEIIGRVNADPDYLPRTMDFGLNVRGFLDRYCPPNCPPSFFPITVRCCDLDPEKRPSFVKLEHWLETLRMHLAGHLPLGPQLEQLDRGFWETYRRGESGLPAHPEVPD
Experiment [4] addresses Bromodomain testis-specific protein (Homo sapiens) (UniProt Q58F21). As to the kind of experiment: Selectivity interaction (Bromodomain panel (DSF asssay)) EUB0000270b BRDT.
Experiment [5] addresses T2, Dual serine/threonine and tyrosine protein kinase (Homo sapiens) (UniProt Q6XUX3).
T2 sequence (whole entry): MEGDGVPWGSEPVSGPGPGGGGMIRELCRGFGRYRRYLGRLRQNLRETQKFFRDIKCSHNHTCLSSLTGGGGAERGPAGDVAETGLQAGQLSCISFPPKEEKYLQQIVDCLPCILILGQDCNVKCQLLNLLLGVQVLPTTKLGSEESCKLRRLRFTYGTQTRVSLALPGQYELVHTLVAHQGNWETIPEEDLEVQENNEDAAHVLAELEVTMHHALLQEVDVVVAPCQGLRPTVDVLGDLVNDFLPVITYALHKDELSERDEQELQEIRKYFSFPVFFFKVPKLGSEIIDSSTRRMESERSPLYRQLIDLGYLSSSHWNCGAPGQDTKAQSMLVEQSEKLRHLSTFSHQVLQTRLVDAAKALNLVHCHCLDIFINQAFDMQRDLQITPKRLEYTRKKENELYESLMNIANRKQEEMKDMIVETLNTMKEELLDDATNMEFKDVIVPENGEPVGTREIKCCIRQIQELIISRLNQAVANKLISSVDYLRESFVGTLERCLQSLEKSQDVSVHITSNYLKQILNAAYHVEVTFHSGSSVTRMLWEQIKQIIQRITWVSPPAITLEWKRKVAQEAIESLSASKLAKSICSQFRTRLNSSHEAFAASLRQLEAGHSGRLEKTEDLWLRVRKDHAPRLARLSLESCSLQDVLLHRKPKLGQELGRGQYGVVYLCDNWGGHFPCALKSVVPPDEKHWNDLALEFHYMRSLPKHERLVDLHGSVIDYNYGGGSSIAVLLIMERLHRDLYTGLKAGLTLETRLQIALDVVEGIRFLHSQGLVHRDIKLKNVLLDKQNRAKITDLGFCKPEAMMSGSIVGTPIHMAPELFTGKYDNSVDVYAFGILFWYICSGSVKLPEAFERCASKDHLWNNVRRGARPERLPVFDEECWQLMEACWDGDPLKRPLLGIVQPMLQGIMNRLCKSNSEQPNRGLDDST
Nature of the experiment: Selectivity interaction (KinomeScan (DiscoverX)) EUB0000045b DSTYK.

Experiment [6] addresses Protein kinase C theta type (Homo sapiens, UniProt Q04759). Nature of the experiment: Selectivity interaction (Kinase panel (Z-LYTE Assay)) EUB0001632a PRKCQ. Particulars: at 10 µM.
The target of experiment [7] is T3, Receptor-interacting serine/threonine-protein kinase 1 (Homo sapiens) (UniProt Q13546).
T3 sequence (whole entry): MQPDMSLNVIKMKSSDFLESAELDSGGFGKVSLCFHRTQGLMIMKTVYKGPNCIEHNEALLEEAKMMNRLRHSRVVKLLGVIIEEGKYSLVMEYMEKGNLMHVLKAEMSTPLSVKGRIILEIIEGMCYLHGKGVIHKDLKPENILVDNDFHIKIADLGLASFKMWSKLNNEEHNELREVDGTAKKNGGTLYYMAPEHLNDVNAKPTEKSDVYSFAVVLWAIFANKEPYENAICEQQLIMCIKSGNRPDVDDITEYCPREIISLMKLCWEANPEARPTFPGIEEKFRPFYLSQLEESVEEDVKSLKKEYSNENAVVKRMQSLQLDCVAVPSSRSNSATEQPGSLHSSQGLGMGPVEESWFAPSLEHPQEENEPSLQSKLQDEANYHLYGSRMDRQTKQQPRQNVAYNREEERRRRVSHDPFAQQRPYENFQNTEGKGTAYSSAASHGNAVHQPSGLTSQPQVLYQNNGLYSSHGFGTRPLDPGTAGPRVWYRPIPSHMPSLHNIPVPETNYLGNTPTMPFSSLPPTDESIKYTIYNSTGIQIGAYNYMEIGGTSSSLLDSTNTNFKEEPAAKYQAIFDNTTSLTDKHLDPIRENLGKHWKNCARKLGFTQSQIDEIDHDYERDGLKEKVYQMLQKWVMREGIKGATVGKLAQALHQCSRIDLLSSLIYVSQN
As to the kind of experiment: Selectivity interaction (KinomeScan (DiscoverX)) EUB0001619a RIPK1. Particulars: at 1 µM.

Experiment [8] concerns the target Insulin receptor (Homo sapiens, UniProt P06213). As to the kind of experiment: Selectivity interaction (Kinase panel (literature)) EUB0001199aCl INSR. Particulars: at 1 µM.

Insulin receptor, sequence (P06213 28-758 limits assumed): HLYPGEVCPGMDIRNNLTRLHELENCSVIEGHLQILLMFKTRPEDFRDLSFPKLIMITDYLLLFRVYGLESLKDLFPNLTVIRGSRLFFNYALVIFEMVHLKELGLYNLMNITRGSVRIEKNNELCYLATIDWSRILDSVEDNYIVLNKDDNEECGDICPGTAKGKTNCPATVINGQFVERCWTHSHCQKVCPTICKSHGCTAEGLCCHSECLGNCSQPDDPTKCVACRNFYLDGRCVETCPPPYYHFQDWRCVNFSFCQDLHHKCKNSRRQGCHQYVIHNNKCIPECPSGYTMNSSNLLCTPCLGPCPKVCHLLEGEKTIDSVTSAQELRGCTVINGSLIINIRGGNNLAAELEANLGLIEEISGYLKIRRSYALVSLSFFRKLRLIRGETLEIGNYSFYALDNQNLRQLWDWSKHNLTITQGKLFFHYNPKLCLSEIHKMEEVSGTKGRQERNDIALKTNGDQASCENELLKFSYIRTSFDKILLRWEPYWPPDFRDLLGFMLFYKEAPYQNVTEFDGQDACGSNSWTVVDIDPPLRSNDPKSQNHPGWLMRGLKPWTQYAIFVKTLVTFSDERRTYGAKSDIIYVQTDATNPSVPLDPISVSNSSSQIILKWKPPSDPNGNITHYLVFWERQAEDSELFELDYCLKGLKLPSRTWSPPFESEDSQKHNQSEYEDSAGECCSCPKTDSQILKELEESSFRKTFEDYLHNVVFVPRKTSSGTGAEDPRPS
Insulin receptor, sequence (P06213 763-1382 limits assumed): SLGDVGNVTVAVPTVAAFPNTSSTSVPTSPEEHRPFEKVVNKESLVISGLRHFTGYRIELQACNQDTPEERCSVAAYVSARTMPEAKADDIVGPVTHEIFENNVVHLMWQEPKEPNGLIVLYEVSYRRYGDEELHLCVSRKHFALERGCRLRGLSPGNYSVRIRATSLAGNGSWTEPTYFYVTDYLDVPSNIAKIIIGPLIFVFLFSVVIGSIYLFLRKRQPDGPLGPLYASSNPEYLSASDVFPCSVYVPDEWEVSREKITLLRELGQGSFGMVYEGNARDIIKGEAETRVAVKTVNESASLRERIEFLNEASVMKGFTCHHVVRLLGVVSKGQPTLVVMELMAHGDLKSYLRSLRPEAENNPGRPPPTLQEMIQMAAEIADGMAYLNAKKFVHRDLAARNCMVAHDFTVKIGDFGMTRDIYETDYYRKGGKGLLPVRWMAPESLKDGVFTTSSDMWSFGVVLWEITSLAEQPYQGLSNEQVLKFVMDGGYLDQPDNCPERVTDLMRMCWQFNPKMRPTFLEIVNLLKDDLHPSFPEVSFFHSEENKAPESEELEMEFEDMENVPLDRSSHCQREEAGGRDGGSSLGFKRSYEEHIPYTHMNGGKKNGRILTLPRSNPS
Protein kinase C theta type, sequence (Q04759 whole entry, looked up): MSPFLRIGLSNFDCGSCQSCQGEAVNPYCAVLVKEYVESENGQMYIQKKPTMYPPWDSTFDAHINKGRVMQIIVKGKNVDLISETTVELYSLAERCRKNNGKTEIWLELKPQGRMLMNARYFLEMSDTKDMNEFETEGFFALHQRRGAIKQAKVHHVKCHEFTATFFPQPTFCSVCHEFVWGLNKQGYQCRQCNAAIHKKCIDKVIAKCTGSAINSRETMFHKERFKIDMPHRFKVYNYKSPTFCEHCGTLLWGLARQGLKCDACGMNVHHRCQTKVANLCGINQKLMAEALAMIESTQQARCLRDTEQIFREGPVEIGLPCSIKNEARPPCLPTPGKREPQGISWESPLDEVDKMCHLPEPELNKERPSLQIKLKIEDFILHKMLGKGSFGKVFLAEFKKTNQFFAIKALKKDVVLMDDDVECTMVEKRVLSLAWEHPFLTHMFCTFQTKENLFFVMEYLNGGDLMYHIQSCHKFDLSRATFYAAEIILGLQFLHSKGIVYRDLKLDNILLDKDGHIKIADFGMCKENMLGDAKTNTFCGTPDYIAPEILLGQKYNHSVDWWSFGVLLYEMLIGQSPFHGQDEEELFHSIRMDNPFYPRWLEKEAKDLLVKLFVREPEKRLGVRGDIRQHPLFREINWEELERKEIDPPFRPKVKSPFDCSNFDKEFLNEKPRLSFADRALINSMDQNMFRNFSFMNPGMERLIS
Aurora kinase B, sequence (Q96GD4 whole entry): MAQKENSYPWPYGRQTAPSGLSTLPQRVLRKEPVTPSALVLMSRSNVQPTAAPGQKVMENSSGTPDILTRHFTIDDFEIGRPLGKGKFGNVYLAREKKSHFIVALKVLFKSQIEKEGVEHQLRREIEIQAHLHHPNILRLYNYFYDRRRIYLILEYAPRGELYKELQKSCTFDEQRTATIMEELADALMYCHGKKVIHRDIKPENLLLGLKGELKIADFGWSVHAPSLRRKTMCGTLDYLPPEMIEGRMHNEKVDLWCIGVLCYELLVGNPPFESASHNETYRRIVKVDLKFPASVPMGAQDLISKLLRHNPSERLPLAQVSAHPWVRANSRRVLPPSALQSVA

On to `CCC(=O)N1CCN(c2ccc(-n3c(=O)ccc4cnc5ccc(-c6cnc7ccccc7c6)cc5c43)cc2C(F)(F)F)CC1`, for which the % of control in experiment [1] worked out at 82%.

In the case of `COc1cc(Nc2nc(C)cc(-c3cnn4nc(OC)ccc34)n2)cc(C(F)(F)F)c1`, in experiment [2], the % of control was 82%.

With `CN(C)CCOc1ccc(-c2nc(-c3ccncc3)c(-c3ccc4c(c3)CC/C4=N\O)[nH]2)cc1`, in experiment [3], the % of control was 100%. In turn, `Cc1cc(CN)cc(C)c1-c1ncn(C)c1-c1cncn1C` registered a dTM in experiment [4] of -1.8 K. `C=CC(=O)Nc1cc(-n2c(=O)ccc3cnc4ccc(-c5ccc(NS(C)(=O)=O)cc5)cc4c32)ccc1C`: the % of control in experiment [5] (at 1 µM) and in experiment [5] (at 10 µM) was 100% each time.

In experiment [6], `Cn1cc(-n2cnc3c(NCc4nc5cc(Cl)c(Cl)cc5[nH]4)nc(N4CCOCC4)nc32)cn1` displayed a % of control of 14.5%. In experiment [7], `N#Cc1cccc(-c2c[nH]c3ncnc(N4CCOCC4)c23)c1` had a % of control of 100%.

The compound `CN1Cc2nccc(-c3cn(C)nc3-c3ccc(F)cc3)c2C1=O` had a % of inhibition in experiment [8] of 3%.
